Drawing on PubChem BioAssay (NCI), this text covers TGI for 33 compounds.

Holding throughout (assay): NCI-60 cell line screen, 48 h
Test [1] relates to DLD-1 colon.
Test [2] concerns DMS 114 small cell lung.
Test [3] concerns KM20L2 colon.
The test system of test [4] is LXFL 529 NSCLC.
The subject of test [5] is M19-MEL melanoma.
In test [6] the test system is MALME-3M melanoma.
The test system of test [7] is MOLT-4 leukemia.
The subject of test [8] is RXF 393 renal.
Test [9] relates to SK-MEL-2 melanoma.
In test [10] the test system is SNB-78 CNS.
Test [11] relates to U251 CNS.
Test [12] has as its system XF 498 CNS.
The subject of test [13] is DMS 273 small cell lung.
The subject of test [14] is TK-10 renal.
In test [15] the test system is HOP-18 NSCLC.

SMILES strings stand for the structures.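 Values below derive from 48-hour exposures of cells grown in 96-well plates, with endpoints linearly interpolated between the two concentrations bracketing the appropriate inhibition level. Definition used: TGI = concentration required for complete inhibition of growth.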

In the case of `CC1C(c2ccccc2)=CCON1c1ccccc1` (stereo not drawn), the TGI in test [1], in [2], in test [3], in [4], in [5] and in test [6] was more than 100 µM in each case. Also, the TGI in [7], in test [8], in [9], in test [10], in test [11] and in [12] was more than 100 µM throughout.
Take `CC[N+](CC)(CC)Cc1cn(S(=O)(=O)c2ccccc2)c2ccccc12`: the TGI in test [1], in [2], in test [13], in test [3], in test [5] and in [6] was more than 100 µM throughout. For the same compound, the TGI in test [7], in test [9], in [14], in [11] and in test [12] was more than 100 µM each time.
For the compound `N#CC(c1ccc(Cl)cc1)c1cccc(Cl)n1` (stereo not drawn), the TGI in [1], in test [3], in test [4], in test [5], in [6] and in test [7] was more than 100 µM each time. Besides, the TGI in test [9] was more than 100 µM; in test [10], more than 100 µM; in test [14], more than 100 µM; in [11], more than 100 µM; in [12] it was 78.7 µM.
For the compound `Cc1cccc(NC(=O)CSc2nnc(Cc3ccccc3)o2)c1`, the TGI in [1], in test [2], in [13], in [15], in test [3] and in test [4] was more than 100 µM in each case. Also, the TGI in test [6], in test [7], in test [8], in [9], in [10] and in [14] was more than 100 µM in each case. In [11], this compound returned a TGI of more than 100 µM.
`O=c1[nH]c2nccn2c(Cl)c1Br`: the TGI was 38.3 µM in test [6]; 42.6 µM in [7]; 20.8 µM in [8]; 16.3 µM in test [9]; more than 100 µM in test [14]; 34.4 µM in test [11].
`Cc1ccc(-c2cnc(NC3OC(COC(=O)c4ccccc4)C(OC(=O)c4ccccc4)C(OC(=O)c4ccccc4)C3OC(=O)c3ccccc3)s2)cc1` (stereo not drawn): the TGI in test [6], in test [7], in [8], in [9], in [14] and in test [11] was more than 100 µM throughout.
Consider `c1ccc2c(c1)n1c(N3CCOCC3)[n+]3ccccc3c1c1c3cccc[n+]3c(N3CCOCC3)n21`, for which the TGI in test [6], in [7], in test [8], in [9], in test [14] and in test [11] was more than 100 µM in each case.
As to `CC(C)[Si](OCC/C=C/C1CCC(=O)C1C(O)C1CCCCC1)(C(C)C)C(C)C` (stereo not drawn), the TGI in test [6] stood at 29.1 µM; in test [7], 30 µM; in test [8], 26.4 µM; in test [9], 26.9 µM; in test [14], 32.7 µM; in [11], 30.9 µM.
On to `O=c1oc2ccccc2c(O)c1C(c1ccc2ccccc2c1)c1c(O)c2ccccc2oc1=O`, for which the TGI in [6] is 57.5 µM; in test [7], 55.1 µM; in test [8], more than 100 µM; in test [9], more than 100 µM; in test [14], more than 100 µM; in [11], 39.2 µM.
In the case of `NC(=O)CC1(O)C=CC(=O)C=C1`, the TGI in test [6], in test [7], in test [8], in test [9], in test [14] and in test [11] was more than 100 µM throughout.
`OC1OC(c2ccc[nH]2)C(F)(F)C(F)(F)C1(F)F` (stereo not drawn): the TGI in test [6], in test [7], in [8], in [9], in test [14] and in test [11] was more than 100 µM each time.
For `O=C(O)c1ccccc1C(=O)OCC1CCCN2CCCCC12` (stereo not drawn), the TGI in test [6], in test [7], in test [8], in test [9], in test [14] and in test [11] was more than 100 µM in each case.
Consider `Clc1cccc(Cl)c1C1SCc2nc3cc4ccccc4cc3n21` (stereo not drawn), for which the TGI in [6], in test [7], in test [8], in [9], in [14] and in test [11] was more than 100 µM throughout.
In the case of `O=C(n1[nH]c(=O)n(-c2ccc([N+](=O)[O-])cc2)c1=O)C(Cl)(Cl)Cl`, the TGI in test [6], in [7], in test [8], in test [9], in test [14] and in [11] was more than 75 µM each time.
As to `COc1ccccc1NC(=S)Nc1cccc(C)n1`, the TGI in test [6], in test [7], in [8], in test [9], in test [14] and in [11] was more than 100 µM throughout.
Take `C#CCOC(=O)C(N)CS` (stereo not drawn): the TGI in test [6], in [7], in [8], in [9], in test [14] and in test [11] was more than 100 µM in each case.
For the compound `Clc1ccc2c(Cl)ncnc2c1I`, the TGI in [1], in [2], in test [13], in test [3], in test [4] and in test [5] was more than 100 µM each time. The TGI in [6] is more than 100 µM; in test [7], 61.4 µM; in test [8], more than 100 µM; in test [9], more than 100 µM; in test [14] it was more than 100 µM; in test [11], more than 100 µM. In addition, the TGI in test [12] was more than 100 µM.
`COC(=O)CC1CN(C(=O)OCc2ccccc2)C(C)(C)O1` (stereo not drawn): the TGI in test [6], in [7], in test [8], in test [9], in test [14] and in [11] was more than 100 µM in each case.
For the compound `Cc1ccc(S(=O)(=O)Oc2coc(CO)cc2=O)cc1`, the TGI in test [6] was 44.5 µM; in test [7] it was more than 88.5 µM; in [8] it was 30 µM; in test [9] it was 57.6 µM; in [14], 44.2 µM; in [11], 23.7 µM.
Turning to `NC(=Nc1ccc(Cl)c(Cl)c1)c1ccccc1N`, the TGI in test [6] was 45.9 µM; in [7] it was 69.3 µM; in [8], 75.9 µM; in test [9] it was 86.8 µM; in test [14] it was more than 100 µM; in [11], more than 100 µM.
On to `COCC1OCCN1C` (stereo not drawn), for which the TGI in [6], in test [7], in test [8], in [9], in test [14] and in test [11] was more than 100 µM throughout.
For `COc1c(C(CC(C)C)OC(C)=O)ccc2c1C(=O)OCc1cc(C)cc(O)c1O2` (stereo not drawn), the TGI in test [6] was 29.8 µM; in [7], more than 100 µM; in [8], 34 µM; in test [9], 33.4 µM; in test [14], 31.8 µM; in [11] it was 28.1 µM.
Take `COC(=O)C(Cc1ccccc1)C(=O)NC(CNC(=O)OCc1ccccc1)C(=O)OCc1ccccc1` (stereo not drawn): the TGI is 43.2 µM in test [6]; 43.7 µM in [7]; 67.3 µM in test [8]; 97.4 µM in [9]; 98 µM in test [14]; more than 100 µM in [11].
On to `CCC/C(Cl)=N\OC(=O)Nc1ccc(Br)cc1`, for which the TGI in test [6] is 10.8 µM; in test [7], 6.07 µM; in test [8], 31 µM; in test [9], 28.9 µM; in test [14] it was 27.2 µM; in test [11], 32.1 µM.
As for `C/C(=C\c1csc(C)n1)[C@@H]1C[C@@H]2O[C@]2(C)CCC[C@H](C)[C@H](O)[C@@H](C)C(=O)C(C)(C)[C@@H](O)CC(=O)O1` (tested in a mixture with another compound), the TGI in [6] was more than 1 µM; in test [7] it was more than 0.307 µM; in test [8], 0.0211 µM; in test [9] it was more than 0.464 µM; in [14], more than 1 µM; in test [11] it was more than 1 µM.
For `CCC1=NC(N/N=C/c2ccccc2O)=N/C1=C\c1ccccc1O`, the TGI was 85.4 µM in [6]; more than 61.5 µM in [7]; more than 73.4 µM in test [8]; 66.2 µM in test [9]; more than 54.6 µM in [14]; more than 100 µM in test [11].
Turning to `CC1=C/C(=N\N(C)C)C(C(O)(C(F)(F)F)C(F)(F)F)C(C)(C)C1` (stereo not drawn), the TGI in test [6], in test [7], in test [8], in test [9], in test [14] and in test [11] was more than 100 µM each time.
Turning to `CNC(=O)C(C)NC(=O)C(Cc1ccccc1)NC(=O)OC(C)(C)C` (stereo not drawn), the TGI in test [6], in test [7], in test [8], in test [9], in test [14] and in test [11] was more than 100 µM each time.
In the case of `CCCOc1ccc(/C=C/C2=[N+](CCO)CCO2)cc1`, the TGI in [6], in test [7], in [8], in test [9], in test [14] and in test [11] was more than 100 µM throughout.
In the case of `Nc1ccccc1C(=O)NNC(=O)c1ccccc1N`, the TGI in [6], in test [7], in test [8], in [9], in [14] and in [11] was more than 100 µM in each case.
On to `O=C(O/N=C1/CCC/C1=C\c1ccccc1)c1ccccc1`, for which the TGI in test [1] was more than 100 µM; in test [2], more than 100 µM; in test [13], more than 100 µM; in test [15] it was more than 100 µM; in test [3] it was more than 100 µM; in test [4], 89.9 µM. The TGI in test [6] was more than 100 µM; in test [7], 78.1 µM; in test [8], more than 100 µM; in test [9], more than 100 µM; in test [10], more than 100 µM; in [14], more than 100 µM. The compound further displayed a TGI in test [11] of more than 100 µM.
Consider `Cc1nc2c(s/c(=N\N)n2-c2ccccc2)c(=O)[nH]1`, for which the TGI in test [1], in test [2], in test [13], in [3], in test [4] and in test [5] was more than 100 µM each time. The TGI in test [6], in [7], in test [8], in test [9], in test [10] and in test [14] was more than 100 µM in each case. The TGI in [11] and in [12] was more than 100 µM throughout.
As for `COC(=O)C1=C(C(=O)OC)C(C(=O)c2ccccc2)N2N=C(c3ccc(Cl)cc3)C=CC12` (stereo not drawn), the TGI in test [6] was 83.7 µM; in test [7] it was more than 100 µM; in test [8] it was more than 100 µM; in test [9], more than 100 µM; in test [14] it was more than 100 µM; in [11], more than 100 µM.
